Experimental data as given in patent US20110086759A1, “CHEMICAL COMPOUNDS” (SYNGENTA CROP PROTECTION, INC., priority 2007, published 2011).

Legend:
Assay type in all cases: in vivo
[1] = test system: Setaria faberi (SETFA); test: Pre-emergence biological efficacy, glasshouse pot test; conditions: 312 h
Procedure, shortened: (§1)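 Seeds sown in standard soil in pots, held one day in glasshouse (24/16 °C day/night, 14 h light, 65% humidity), then sprayed with aqueous solution from acetone/water (50:50) formulation with 0.5% Tween 20 at 1000 or 250 g/ha. Damage scored after 13 days (0 = none, 100 = total).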

[2] = test system: Solanum nigrum (SOLNI); test: as above; conditions: 312 h
Procedure, shortened: as §1

[3] = test system: Amaranthus retoflexus (AMARE); test: as above; conditions: Amaranthus retroflexus, 312 h
Procedure, shortened: as §1

[4] = test system: Ipomea hederaceae (IPOHE); test: as above; conditions: Ipomoea hederacea, 312 h
Procedure, shortened: as §1

[5] = test system: Echinochloa crus-galli (ECHCG); test: as above; conditions: 312 h
Procedure, shortened: as §1

[6] = test system: Alopecurus myosuroides (ALOMY); test: as above; conditions: 312 h
Procedure, shortened: as §1

[7] = test system: Setaria faberi (SETFA); test: Post-emergence biological efficacy, glasshouse pot test; conditions: 312 h
Procedure, shortened: (§2)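 Plants were sown in standard soil and grown 8 days in a glasshouse (24/16° C. day/night, 14 hours light, 65% humidity), then sprayed post-emergence at 1000 or 250 g/ha from acetone/water (50:50) with 0.5% Tween 20. Damage was scored visually after 13 days (0 = none, 100 = total).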

[8] = test system: Solanum nigrum (SOLNI); test: as above; conditions: 312 h
Procedure, shortened: as §2

[9] = test system: Amaranthus retoflexus (AMARE); test: as above; conditions: Amaranthus retroflexus, 312 h
Procedure, shortened: as §2

[10] = test system: Ipomea hederaceae (IPOHE); test: as above; conditions: Ipomoea hederacea, 312 h
Procedure, shortened: as §2

[11] = test system: Echinochloa crus-galli (ECHCG); test: as above; conditions: 312 h
Procedure, shortened: as §2

[12] = test system: Alopecurus myosuroides (ALOMY); test: as above; conditions: 312 h
Procedure, shortened: as §2

[13] = pre-emergence, 1,000 g/ha, evaluated after 13 days (100=total damage; 0=no damage), read-out: Percentage damage SETFA
[14] = pre-emergence, 1,000 g/ha, evaluated after 13 days (100=total damage; 0=no damage), read-out: Percentage damage SOLNI
[15] = pre-emergence, 1,000 g/ha, evaluated after 13 days (100=total damage; 0=no damage), read-out: Percentage damage AMARE
[16] = pre-emergence, 1,000 g/ha, evaluated after 13 days (100=total damage; 0=no damage), read-out: Percentage damage IPOHE
[17] = pre-emergence, 1,000 g/ha, evaluated after 13 days (100=total damage; 0=no damage), read-out: Percentage damage ECHCG
[18] = pre-emergence, 1,000 g/ha, evaluated after 13 days (100=total damage; 0=no damage), read-out: Percentage damage ALOMY
[19] = post-emergence, 1,000 g/ha, evaluated after 13 days (100=total damage; 0=no damage), read-out: Percentage damage caused to weed species, SETFA
[20] = post-emergence, 1,000 g/ha, evaluated after 13 days (100=total damage; 0=no damage), read-out: Percentage damage caused to weed species, SOLNI
[21] = post-emergence, 1,000 g/ha, evaluated after 13 days (100=total damage; 0=no damage), read-out: Percentage damage caused to weed species, AMARE
[22] = post-emergence, 1,000 g/ha, evaluated after 13 days (100=total damage; 0=no damage), read-out: Percentage damage caused to weed species, IPOHE
[23] = post-emergence, 1,000 g/ha, evaluated after 13 days (100=total damage; 0=no damage), read-out: Percentage damage caused to weed species, ECHCG
[24] = post-emergence, 1,000 g/ha, evaluated after 13 days (100=total damage; 0=no damage), read-out: Percentage damage caused to weed species, ALOMY

## CCN(Cc1ccnc(C)n1)c1nc(C2CC2)nc(C(=O)OC)c1Cl [Compound 6-161, 5-Chloro-2-cyclopropyl-4-[N-ethyl-N-(2-methylpyrimidin-4-ylmethyl)-amino]-6-methoxycarbonyl-pyrimidine]
[1]; pre-emergence, rate 1,000 g/ha, evaluated after 13 days (100=total damage to plant; 0=no damage), read-out: Percentage damage caused to weed species, SETFA
  pest or weed control at 1000 g/ha: 0%
[2]; pre-emergence, rate 1,000 g/ha, evaluated after 13 days (100=total damage to plant; 0=no damage), read-out: Percentage damage caused to weed species, SOLNI
  pest or weed control at 1000 g/ha: 20%
[3]; pre-emergence, rate 1,000 g/ha, evaluated after 13 days (100=total damage to plant; 0=no damage), read-out: Percentage damage caused to weed species, AMARE
  pest or weed control at 1000 g/ha: 100%
[4]; pre-emergence, rate 1,000 g/ha, evaluated after 13 days (100=total damage to plant; 0=no damage), read-out: Percentage damage caused to weed species, IPOHE
  pest or weed control at 1000 g/ha: 80%
[5]; pre-emergence, rate 1,000 g/ha, evaluated after 13 days (100=total damage to plant; 0=no damage), read-out: Percentage damage caused to weed species, ECHCG
  pest or weed control at 1000 g/ha: 0%
[6]; pre-emergence, rate 1,000 g/ha, evaluated after 13 days (100=total damage to plant; 0=no damage), read-out: Percentage damage caused to weed species, ALOMY
  pest or weed control at 1000 g/ha: 0%
[7]; Rate 1,000 g/ha, post-emergence spray, evaluated after 13 days (100=total damage to plant; 0=no damage to plant), read-out: Percentage damage caused to weed species, post-emergence, SETFA
  pest or weed control at 1000 g/ha: 30%
[8]; Rate 1,000 g/ha, post-emergence spray, evaluated after 13 days (100=total damage to plant; 0=no damage to plant), read-out: Percentage damage caused to weed species, post-emergence, SOLNI
  pest or weed control at 1000 g/ha: 70%
[9]; Rate 1,000 g/ha, post-emergence spray, evaluated after 13 days (100=total damage to plant; 0=no damage to plant), read-out: Percentage damage caused to weed species, post-emergence, AMARE
  pest or weed control at 1000 g/ha: 70%
[10]; Rate 1,000 g/ha, post-emergence spray, evaluated after 13 days (100=total damage to plant; 0=no damage to plant), read-out: Percentage damage caused to weed species, post-emergence, IPOHE
  pest or weed control at 1000 g/ha: 80%
[11]; Rate 1,000 g/ha, post-emergence spray, evaluated after 13 days (100=total damage to plant; 0=no damage to plant), read-out: Percentage damage caused to weed species, post-emergence, ECHCG
  pest or weed control at 1000 g/ha: 0%
[12]; Rate 1,000 g/ha, post-emergence spray, evaluated after 13 days (100=total damage to plant; 0=no damage to plant), read-out: Percentage damage caused to weed species, post-emergence, ALOMY
  pest or weed control at 1000 g/ha: 0%

## COC(=O)c1nc(C2CC2)nc(NCc2cccc(Cl)c2)c1Cl [Compound 4-62]
[1]; [13]
  pest or weed control at 1000 g/ha: 10%
[2]; [14]
  pest or weed control at 1000 g/ha: 90%
[3]; [15]
  pest or weed control at 1000 g/ha: 100%
[4]; [16]
  pest or weed control at 1000 g/ha: 60%
[5]; [17]
  pest or weed control at 1000 g/ha: 20%
[6]; [18]
  pest or weed control at 1000 g/ha: 10%
[7]; [19]
  pest or weed control at 1000 g/ha: 90%
[8]; [20]
  pest or weed control at 1000 g/ha: 100%
[9]; [21]
  pest or weed control at 1000 g/ha: 100%
[10]; [22]
  pest or weed control at 1000 g/ha: 100%
[11]; [23]
  pest or weed control at 1000 g/ha: 70%
[12]; [24]
  pest or weed control at 1000 g/ha: 30%

## COC(=O)c1nc(C2CC2)nc(NCc2ncco2)c1Cl [Compound 4-148, 5-Chloro-2-cyclopropyl-6-methoxycarbonyl-4-(oxazol-2-ylmethylamino)-pyrimidine]
[1]; [13]
  pest or weed control at 1000 g/ha: 20%
[2]; [14]
  pest or weed control at 1000 g/ha: 90%
[3]; [15]
  pest or weed control at 1000 g/ha: 80%
[4]; [16]
  pest or weed control at 1000 g/ha: 100%
[5]; [17]
  pest or weed control at 1000 g/ha: 30%
[6]; [18]
  pest or weed control at 1000 g/ha: 20%
[7]; [19]
  pest or weed control at 1000 g/ha: 50%
[8]; [20]
  pest or weed control at 1000 g/ha: 80%
[9]; [21]
  pest or weed control at 1000 g/ha: 100%
[10]; [22]
  pest or weed control at 1000 g/ha: 60%
[11]; [23]
  pest or weed control at 1000 g/ha: 40%
[12]; [24]
  pest or weed control at 1000 g/ha: 20%

## COC(=O)c1nc(C2CC2)nc(N[C@H](C)c2cccc3ccccc23)c1Cl [4-184 (R), (R)-5-Chloro-2-cyclopropyl-6-methoxycarbonyl-4-[1-(naphth-1-yl)ethylamino]-pyrimidine]
[1]; [13]
  pest or weed control at 1000 g/ha: 0%
[2]; [14]
  pest or weed control at 1000 g/ha: 0%
[3]; [15]
  pest or weed control at 1000 g/ha: 0%
[4]; [16]
  pest or weed control at 1000 g/ha: 0%
[5]; [17]
  pest or weed control at 1000 g/ha: 0%
[6]; [18]
  pest or weed control at 1000 g/ha: 0%
[7]; [19]
  pest or weed control at 1000 g/ha: 20%
[8]; [20]
  pest or weed control at 1000 g/ha: 60%
[9]; [21]
  pest or weed control at 1000 g/ha: 80%
[10]; [22]
  pest or weed control at 1000 g/ha: 70%
[11]; [23]
  pest or weed control at 1000 g/ha: 40%
[12]; [24]
  pest or weed control at 1000 g/ha: 10%

## COC(=O)c1nc(C2CC2)nc(NCC(F)c2cccc(C(F)(F)F)c2)c1Cl (stereo not drawn) [Compound 4-237, 5-Chloro-2-cyclopropyl-4-[2-fluoro-2-(3-trifluoromethyl-phenyl)ethylamino]-6-methoxy-carbonylpyrimidine]
[1]; [13]
  pest or weed control at 1000 g/ha: 0%
[2]; [14]
  pest or weed control at 1000 g/ha: 0%
[3]; [15]
  pest or weed control at 1000 g/ha: 30%
[4]; [16]
  pest or weed control at 1000 g/ha: 10%
[5]; [17]
  pest or weed control at 1000 g/ha: 0%
[6]; [18]
  pest or weed control at 1000 g/ha: 0%
[7]; [19]
  pest or weed control at 1000 g/ha: 40%
[8]; [20]
  pest or weed control at 1000 g/ha: 70%
[9]; [21]
  pest or weed control at 1000 g/ha: 100%
[10]; [22]
  pest or weed control at 1000 g/ha: 60%
[11]; [23]
  pest or weed control at 1000 g/ha: 30%
[12]; [24]
  pest or weed control at 1000 g/ha: 0%

## COC(=O)c1nc(C2CC2)nc(NCC(F)c2ccc(Cl)cc2Cl)c1Cl (stereo not drawn) [Compound 4-239, 5-Chloro-2-cyclopropyl-4-[2-(2,4-dichlorophenyl)-2-fluoro-ethylamino]-6-methoxycarbonyl-pyrimidine]
[1]; [13]
  pest or weed control at 1000 g/ha: 0%
[2]; [14]
  pest or weed control at 1000 g/ha: 0%
[3]; [15]
  pest or weed control at 1000 g/ha: 20%
[4]; [16]
  pest or weed control at 1000 g/ha: 10%
[5]; [17]
  pest or weed control at 1000 g/ha: 0%
[6]; [18]
  pest or weed control at 1000 g/ha: 0%
[7]; [19]
  pest or weed control at 1000 g/ha: 20%
[8]; [20]
  pest or weed control at 1000 g/ha: 60%
[9]; [21]
  pest or weed control at 1000 g/ha: 90%
[10]; [22]
  pest or weed control at 1000 g/ha: 50%
[11]; [23]
  pest or weed control at 1000 g/ha: 0%
[12]; [24]
  pest or weed control at 1000 g/ha: 0%
